Data set [1] relates to E. coli MC1061. The data set is described as follows: Antibacterial MIC. The class given is cell-based. Conditions: Escherichia coli.
Data set [2] relates to panel of Gram-positive, Gram-negative and mycobacterial strains. The data set is described as follows: Antibacterial MIC, summary over the panel of bacterial strains. Format: cell-based. The conditions noted are these: all bacterial strains tested.
The nature of data set [3]: Mammalian cell cytotoxicity, summary over both cell lines. Format: cell-based. Conditions: human, A549 cells and BEAS-2B cells.
The subject of data set [4] is C. albicans ATCC 64124. The data set is described as follows: Antifungal MIC. Format: cell-based. Conditions: Candida albicans, ATCC64124.
Data set [5] deals with C. albicans ATCC 90819. Nature of the data set: Antifungal MIC. The class given is cell-based. The conditions noted are these: Candida albicans, ATCC90819.
Data set [6] relates to E. cloacae ATCC 13047. The data set is described as follows: Antibacterial MIC. Conditions: Enterobacter cloacae, ATCC13047. Format: cell-based.
Data set [7] addresses hERG channel (Homo sapiens, UniProt Q12809). The class given is binding. The conditions noted are these: class by IC50.
Data set [8] concerns L. monocytogenes ATCC 19115. The class given is cell-based, Listeria monocytogenes. The conditions noted are these: strain B (Lmo), 15 serial passages.
Data set [9] has as its system MRSA. Format: cell-based, Staphylococcus aureus. The conditions noted are these: strain C (MRSA), 15 serial passages.
Data set [10] has as its system VRE. The class given is cell-based, enterococcus. Conditions: strain D (VRE), 15 serial passages.
The subject of data set [11] is P. aeruginosa ATCC 27853. Format: cell-based. Conditions: strain I (Pae); for development of resistance (passage after which resistance developed): 15 serial passages.
Data set [12] has as its system C. albicans ATCC 10231. The class given is cell-based, Candida albicans. The conditions noted are these: C. albicans ATCC 10231, repeated treatments with sub-MIC drug concentrations.
The test system of data set [13] is C. albicans ATCC 10231. The data set is described as follows: Intracellular ROS production, DCFH-DA fluorescence assay. Conditions: 1 h at 35 °C, DCFH-DA staining. The class given is cell-based, Candida albicans.
For data set [14], the system named is P. aeruginosa ATCC 27853. Nature of the data set: Antibacterial MIC. Format: cell-based. Conditions: Pseudomonas aeruginosa, ATCC27853.
The test system of data set [15] is B. subtilis 168. The data set is described as follows: Antibacterial MIC. Format: cell-based. Conditions: Bacillus subtilis.
For data set [16], the system named is methicillin-resistant Staphylococcus aureus (MRSA). The data set is described as follows: Antibacterial MIC. Format: cell-based.
The subject of data set [17] is L. monocytogenes ATCC 19115. The data set is described as follows: Antibacterial MIC. Format: cell-based. The conditions noted are these: Listeria monocytogenes, ATCC19115.
For data set [18], the system named is K. pneumoniae ATCC 27736. Nature of the data set: Antibacterial MIC. Format: cell-based. The conditions noted are these: Klebsiella pneumoniae, ATCC27736.
In data set [19] the test system is seven Candida albicans strains. The data set is described as follows: Antifungal MIC, summary over the panel of seven strains. Format: cell-based. Conditions: most of the fungal strains tested / overall.
Data set [20] concerns vancomycin-resistant enterococcus (VRE). Nature of the data set: Antibacterial MIC. Format: cell-based.

≈ marks a conversion by molar mass, not a printed value.

hERG channel, sequence (Q12809 whole entry): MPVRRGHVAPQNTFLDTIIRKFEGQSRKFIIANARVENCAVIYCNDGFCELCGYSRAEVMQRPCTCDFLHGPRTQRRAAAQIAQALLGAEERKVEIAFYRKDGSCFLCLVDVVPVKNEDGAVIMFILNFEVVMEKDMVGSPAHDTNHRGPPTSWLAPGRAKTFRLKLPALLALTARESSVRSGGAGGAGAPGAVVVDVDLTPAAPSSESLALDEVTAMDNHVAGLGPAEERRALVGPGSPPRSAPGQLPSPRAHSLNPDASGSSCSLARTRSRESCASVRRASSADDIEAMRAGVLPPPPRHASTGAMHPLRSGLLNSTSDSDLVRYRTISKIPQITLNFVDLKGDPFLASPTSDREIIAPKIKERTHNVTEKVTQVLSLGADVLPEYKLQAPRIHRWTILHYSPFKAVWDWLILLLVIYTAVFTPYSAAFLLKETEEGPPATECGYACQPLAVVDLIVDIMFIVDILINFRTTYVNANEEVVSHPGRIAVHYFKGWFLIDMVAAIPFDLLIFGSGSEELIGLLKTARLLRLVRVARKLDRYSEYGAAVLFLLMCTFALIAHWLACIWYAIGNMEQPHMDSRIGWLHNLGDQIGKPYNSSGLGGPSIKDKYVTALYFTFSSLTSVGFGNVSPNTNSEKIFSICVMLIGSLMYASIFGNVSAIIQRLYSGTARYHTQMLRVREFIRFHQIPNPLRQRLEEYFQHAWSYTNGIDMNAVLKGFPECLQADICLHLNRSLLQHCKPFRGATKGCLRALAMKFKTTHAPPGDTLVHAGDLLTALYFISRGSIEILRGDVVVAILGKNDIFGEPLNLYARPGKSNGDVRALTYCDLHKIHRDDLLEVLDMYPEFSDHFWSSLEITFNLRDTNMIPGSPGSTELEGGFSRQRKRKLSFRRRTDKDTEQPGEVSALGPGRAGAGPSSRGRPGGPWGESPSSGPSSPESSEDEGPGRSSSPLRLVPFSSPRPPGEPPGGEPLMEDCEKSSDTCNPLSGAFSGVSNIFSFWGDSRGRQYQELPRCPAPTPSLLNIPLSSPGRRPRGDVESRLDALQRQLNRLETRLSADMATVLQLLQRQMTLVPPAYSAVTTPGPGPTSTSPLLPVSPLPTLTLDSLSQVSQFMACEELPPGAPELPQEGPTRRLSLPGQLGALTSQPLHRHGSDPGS

The MIC is the lowest concentration found to suppress growth. Higher therefore signals a need for much substance. Consider `CC1(C)S[C@@H]2[C@H](NC(=O)[C@H](N)c3ccccc3)C(=O)N2[C@H]1C(=O)O` [AMP, ampicillin, reference compound], for which the MIC in data set [1] is > 92.8 µg/mL. For the same molecule, in data set [2], the “MIC, range over bacterial strains tested” value was ≥ 250 µM.
The IC50 is the concentration needed to halve the response being measured. A low value points to greater potency in that assay. Take `Cl.N=C(N)N/N=C/c1ccc(-c2ccc(/C=N/Nc3ccc(Cl)cc3)cc2)cc1` [Compound 7Ad]: in [1], the MIC was > 214 µg/mL. For the same molecule, the IC50 in [3] lay in the range of 4.4 to 13.9 µg/mL.
`C[C@@H]1[C@H](O)[C@@H](C)/C=C/C=C/C=C/C=C/C=C/C=C/C=C/[C@H](O[C@@H]2O[C@H](C)[C@@H](O)[C@H](N)[C@@H]2O)C[C@@H]2O[C@](O)(C[C@@H](O)C[C@@H](O)[C@H](O)CC[C@@H](O)C[C@@H](O)CC(=O)O[C@H]1C)C[C@H](O)[C@H]2C(=O)O` [AmB, amphotericin B]: the MIC is 2 to 3.9 µg/mL (≈ 2.16 to 4.22 µM) in data set [4] and 2 µg/mL (≈ 2.16 µM) in [5].
With `Cl.N=C(N)N/N=C/c1ccc(-c2ccc(/C=N/Nc3ccc(Cl)cc3Cl)cc2)cc1` [Compound 7Ag], the MIC in [1] was > 231 µg/mL.
As for `C/C(=N\NC(=N)N)c1ccc2c(c1)Cc1cc(/C(C)=N/NC(=N)N)ccc1-2.Cl.Cl` [Compound 4F], the MIC in data set [6] and in data set [1] was 218 µg/mL each time. Moreover, the “affinity for / interaction with hERG (class)” value (“affinity for / interaction” below) in data set [7] is reported as “moderate (IC50 values in the range of 1-10 μM are considered to have moderate affinity)”. Moreover, the “development of resistance (passage after which resistance developed)” value (from here on “development of resistance”) in data set [8], in [9], in [10] and in data set [11] was “did not develop resistance” each time. Besides, in [12], the “development of drug resistance” value is recorded as “did not to develop drug resistance”. Besides, the “intracellular ROS production” value in data set [13] (1× and 2× MIC) is given as “increased intracellular ROS production”.
`C/C(=N\NC(=N)N)c1ccc(-c2ccc(/C(C)=N/Nc3ccccc3Cl)cc2)cc1.Cl` [Compound 8Aa]: the MIC in data set [6], in data set [1] and in data set [14] was 213 µg/mL each time.
For the molecule `C/C(=N\NC(=N)N)c1ccc(Oc2ccc(/C(C)=N/NC(=N)N)cc2)cc1.Cl.Cl` [Compound 4E], the minimum inhibitory concentration (MIC) in data set [15], in data set [16] and in data set [1] was 54.9 µg/mL in each case.
Take `C/C(=N\NC(=N)N)c1ccc(-c2ccc(/C(C)=N/NC(=N)N)cc2)cc1.Cl.Cl` [Compound 4A]: in data set [1], the minimum inhibitory concentration (MIC) is 26.5 µg/mL.
As for `C/C(=N\NC(=N)N)c1ccc(CCc2ccc(/C(C)=N/NC(=N)N)cc2)cc1.Cl.Cl` [Compound 4D], the MIC in data set [1] was > 226 µg/mL. The “increase in MIC values” in data set [11] (after 15 serial passages at sub-inhibitory concentrations) amounted to 4 fold.
Molecule `Cl.N#Cc1ccc(N/N=C/c2ccc(-c3ccc(/C=N/NC(=N)N)cc3)cc2)cc1` [Compound 7Ae] showed a minimal inhibitory concentration (MIC) in [1] of 26.1 to 52.2 µg/mL.
On to `Cl.Cl.N=C(N)N/N=C/c1ccc(-c2cccc(/C=N/NC(=N)N)c2)cc1` [Compound 3B], for which, in [1], the MIC was > 198 µg/mL. This molecule also yielded an IC50 in data set [3] of 4.4 to 13.9 µg/mL.
With `Cl.N=C(N)N/N=C/c1ccc(-c2ccc(/C=N/Nc3ccccc3Br)cc2)cc1` [Compound 7Ab], the MIC in data set [1] is > 235 µg/mL.
For the molecule `C/C(=N\NC(=N)N)c1cccc(/C(C)=N/NC(=N)N)c1.Cl.Cl` [Compound 4H], in [1], the minimal inhibitory concentration (MIC) is > 173 µg/mL.
As for `NCC[C@H](O)C(=O)N[C@@H]1C[C@H](N)[C@@H](O[C@H]2O[C@H](CN)[C@@H](O)[C@H](O)[C@H]2O)[C@H](O)[C@H]1O[C@H]1O[C@H](CO)[C@@H](O)[C@H](N)[C@H]1O` [AMK, amikacin, reference compound], the MIC in [17] was 3 µg/mL (≈ 5.12 µM); in data set [16] it was 24.5 µg/mL (≈ 41.8 µM); in data set [1], 24.5 µg/mL (≈ 41.8 µM); in data set [18], 24.5 µg/mL (≈ 41.8 µM). Besides, the “development of resistance” value is 15 passages in data set [8], 12 passages in data set [9], 3 passages in data set [10] and 5 passages in data set [11]. Further, the “MIC, range over bacterial strains tested” value in [2] fell in the range of 3.9 to 125 µM.
`Cl.N=C(N)N/N=C/c1ccc(-c2ccc(/C=N/Nc3ccc(F)cc3F)cc2)cc1` [Compound 7Af]: the MIC in data set [1] is > 214 µg/mL. In addition, the “affinity for / interaction” value in data set [7] was “moderate (IC50 values in the range of 1-10 μM are considered to have moderate affinity)”. The “antifungal activity (class)” value in data set [19] is listed as “excellent (excellent (MIC = 0.5-3.9 μg/mL))”. This molecule also yielded an IC50 in data set [3] of 4.4 to 13.9 µg/mL.
Take `Cl.Cl.N=C(N)N/N=C/c1ccc(-c2ccc(/C=N/NC(=N)N)cc2)cc1` [Compound 3A]: in data set [1], the MIC was > 198 µg/mL.
On the same count and under the same terms, in the case of `C/C(=N\NC(=N)N)c1ccc(/C(C)=N/NC(=N)N)cc1.Cl.Cl` [Compound 4G] it was > 173 µg/mL.
`Cl.N=C(N)N/N=C/c1ccc(-c2ccc(/C=N/Nc3ccccc3Cl)cc2)cc1` [Compound 7Aa]: the MIC in data set [15] is > 215 µg/mL; in [17], 0.4 to 0.9 µg/mL; in data set [16], 0.9 µg/mL; in data set [20], 0.9 µg/mL; in data set [6], > 215 µg/mL; in data set [1], > 215 µg/mL. Further, the MIC in data set [18] and in [14] was > 215 µg/mL throughout. Further, in data set [7], the “affinity for / interaction” value was “moderate (IC50 values in the range of 1-10 μM are considered to have moderate affinity)”. Also, the “development of resistance” value is “did not develop resistance” in data set [8], “twelve” in data set [9], “did not develop resistance” in data set [10] and “twelve” in [11]. For the same molecule, the “development of drug resistance” value in data set [12] is reported as “did not to develop drug resistance”. For the same molecule, the “intracellular ROS production” value in data set [13] (1× and 2× MIC) is recorded as “increased intracellular ROS production”.
Turning to `OO` [Compound H2O2, H2O2, reference compound], the “intracellular ROS production” value in data set [13] (positive control at 1 mM) is reported as “induced ROS production”.
Turning to `CC1COc2c(N3CCN(C)CC3)c(F)cc3c(=O)c(C(=O)O)cn1c23` (stereo not shown) [OFX, ofloxacin, reference compound], the MIC in data set [1] lay in the range of 1.4 to 2.8 µg/mL (≈ 3.87 to 7.75 µM). Further, the “MIC, range over bacterial strains tested” value in data set [2] is ≤0.5 to 31.3 µM.
Consider `C/C(=N\NC(=N)N)c1ccc(Cc2ccc(/C(C)=N/NC(=N)N)cc2)cc1.Cl.Cl` [Compound 4C], for which the minimal inhibitory concentration (MIC) in data set [1] was > 219 µg/mL.

(Values after paper PMC5164969 (Bioorganic & medicinal chemistry, 2016).)
